Laboratory results reported in PubChem BioAssay (NCI).
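All cell lines were grown in 96-well plates and treated with compound for 48 hours. GI50: concentration for 50% inhibition of growth. TGI: concentration producing complete growth inhibition.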

What was measured:
Assay in all cases: inhibition of tumour cell growth, NCI panel, 48 h
NCI-H23 lung = test system: NCI-H23 lung
SF-268 CNS = test system: SF-268 CNS
MOLT-4 leukemia = test system: MOLT-4 leukemia
PC-3 prostate = test system: PC-3 prostate
HOP-62 NSCLC = test system: HOP-62 NSCLC
RPMI-8226 leukemia = test system: RPMI-8226 leukemia
OVCAR-5 ovarian = test system: OVCAR-5 ovarian
U251 CNS = test system: U251 CNS
HL-60(TB) leukemia = test system: HL-60(TB) leukemia
KM12 colon = test system: KM12 colon
UO-31 renal = test system: UO-31 renal
OVCAR-8 ovarian = test system: OVCAR-8 ovarian
RXF 393 renal = test system: RXF 393 renal
MALME-3M melanoma = test system: MALME-3M melanoma
LOX IMVI melanoma = test system: LOX IMVI melanoma
CAKI-1 renal = test system: CAKI-1 renal
TK-10 renal = test system: TK-10 renal
SF-295 CNS = test system: SF-295 CNS
HS 578T breast = test system: HS 578T breast
K-562 leukemia = test system: K-562 leukemia
DU-145 prostate = test system: DU-145 prostate
CCRF-CEM leukemia = test system: CCRF-CEM leukemia
SR leukemia = test system: SR leukemia
OVCAR-4 ovarian = test system: OVCAR-4 ovarian
HT29 colon = test system: HT29 colon
NCI-H226 lung = test system: NCI-H226 lung
SF-539 CNS = test system: SF-539 CNS
T-47D breast = test system: T-47D breast
UACC-62 melanoma = test system: UACC-62 melanoma
SK-MEL-2 melanoma = test system: SK-MEL-2 melanoma
UACC-257 melanoma = test system: UACC-257 melanoma
MCF7 breast = test system: MCF7 breast
HCC-2998 colon = test system: HCC-2998 colon
786-0 renal = test system: 786-0 renal
A549 NSCLC = test system: A549 NSCLC
NCI-H460 lung = test system: NCI-H460 lung
HCT-116 colon = test system: HCT-116 colon
SN12C renal = test system: SN12C renal
MDA-MB-435 = test system: MDA-MB-435
BT-549 breast = test system: BT-549 breast
SK-MEL-5 melanoma = test system: SK-MEL-5 melanoma
MDA-MB-231 breast = test system: MDA-MB-231 breast
OVCAR-3 ovarian = test system: OVCAR-3 ovarian
SK-MEL-28 melanoma = test system: SK-MEL-28 melanoma
HCT-15 colon = test system: HCT-15 colon
NCI/ADR-RES ovarian = test system: NCI/ADR-RES ovarian
ACHN renal = test system: ACHN renal
SK-OV-3 ovarian = test system: SK-OV-3 ovarian
IGROV1 ovarian = test system: IGROV1 ovarian
M14 melanoma = test system: M14 melanoma
SNB-75 CNS = test system: SNB-75 CNS
SW-620 colon = test system: SW-620 colon
NCI-H522 lung = test system: NCI-H522 lung
COLO 205 colon = test system: COLO 205 colon
SNB-19 CNS = test system: SNB-19 CNS
HOP-92 NSCLC = test system: HOP-92 NSCLC
EKVX NSCLC = test system: EKVX NSCLC

Question: With `O=C(NC[C@H](O)CN1CCc2ccccc2C1)c1cc(NC2COC2)ncn1` as the molecule, how does the GI50 (NCI-H23 lung) read?
Answer: 19.3 µM

Question: And the TGI (NCI-H23 lung)?
Answer: > 100 µM

Question: And the GI50 (SF-268 CNS)?
Answer: 14.9 µM

Question: And the TGI (SF-268 CNS)?
Answer: 97.5 µM

Question: What about the GI50 (MOLT-4 leukemia) of the same molecule?
Answer: 15.1 µM

Question: What about the TGI (MOLT-4 leukemia) of the same molecule?
Answer: 49.3 µM

Question: And the GI50 (PC-3 prostate)?
Answer: 5.92 µM

Question: And the TGI (PC-3 prostate)?
Answer: 96.3 µM

Question: And the GI50 (HOP-62 NSCLC)?
Answer: 37.7 µM

Question: And the TGI (HOP-62 NSCLC)?
Answer: > 100 µM

Question: What about the GI50 (RPMI-8226 leukemia) of the same molecule?
Answer: 4.22 µM

Question: What about the TGI (RPMI-8226 leukemia) of the same molecule?
Answer: 43.5 µM

Question: What about the GI50 (OVCAR-5 ovarian) of the same molecule?
Answer: 36.8 µM

Question: What about the TGI (OVCAR-5 ovarian) of the same molecule?
Answer: > 100 µM

Question: And the GI50 (U251 CNS)?
Answer: 13 µM

Question: What about the TGI (U251 CNS) of the same molecule?
Answer: > 100 µM

Question: And the GI50 (HL-60(TB) leukemia)?
Answer: 20.3 µM

Question: What about the TGI (HL-60(TB) leukemia) of the same molecule?
Answer: 60.5 µM

Question: What about the GI50 (KM12 colon) of the same molecule?
Answer: 16.2 µM

Question: What about the TGI (KM12 colon) of the same molecule?
Answer: > 100 µM

Question: And the GI50 (UO-31 renal)?
Answer: 11.8 µM

Question: And the TGI (UO-31 renal)?
Answer: 97.1 µM

Question: And the GI50 (OVCAR-8 ovarian)?
Answer: 20.8 µM

Question: What about the TGI (OVCAR-8 ovarian) of the same molecule?
Answer: > 100 µM

Question: What about the GI50 (RXF 393 renal) of the same molecule?
Answer: 2.31 µM

Question: What about the TGI (RXF 393 renal) of the same molecule?
Answer: 12.9 µM

Question: What about the GI50 (MALME-3M melanoma) of the same molecule?
Answer: 14.1 µM

Question: What about the TGI (MALME-3M melanoma) of the same molecule?
Answer: 68.3 µM

Question: And the GI50 (LOX IMVI melanoma)?
Answer: 7.21 µM

Question: And the TGI (LOX IMVI melanoma)?
Answer: 23.3 µM

Question: What about the GI50 (CAKI-1 renal) of the same molecule?
Answer: 26.4 µM

Question: What about the TGI (CAKI-1 renal) of the same molecule?
Answer: > 100 µM

Question: What about the GI50 (TK-10 renal) of the same molecule?
Answer: 22 µM

Question: What about the TGI (TK-10 renal) of the same molecule?
Answer: 88.9 µM

Question: What about the GI50 (SF-295 CNS) of the same molecule?
Answer: 14.7 µM

Question: And the TGI (SF-295 CNS)?
Answer: > 100 µM

Question: What about the GI50 (HS 578T breast) of the same molecule?
Answer: 19.1 µM

Question: What about the TGI (HS 578T breast) of the same molecule?
Answer: 81.4 µM

Question: What about the GI50 (K-562 leukemia) of the same molecule?
Answer: 20.3 µM

Question: And the TGI (K-562 leukemia)?
Answer: > 100 µM

Question: And the GI50 (DU-145 prostate)?
Answer: 18.3 µM

Question: What about the TGI (DU-145 prostate) of the same molecule?
Answer: > 100 µM

Question: And the GI50 (CCRF-CEM leukemia)?
Answer: 26.9 µM

Question: And the TGI (CCRF-CEM leukemia)?
Answer: > 100 µM

Question: And the GI50 (SR leukemia)?
Answer: 9.29 µM

Question: What about the TGI (SR leukemia) of the same molecule?
Answer: 50.9 µM

Question: What about the GI50 (OVCAR-4 ovarian) of the same molecule?
Answer: 16 µM

Question: What about the TGI (OVCAR-4 ovarian) of the same molecule?
Answer: > 100 µM

Question: What about the GI50 (HT29 colon) of the same molecule?
Answer: 20.8 µM

Question: What about the TGI (HT29 colon) of the same molecule?
Answer: > 100 µM

Question: What about the GI50 (NCI-H226 lung) of the same molecule?
Answer: 9.88 µM

Question: What about the TGI (NCI-H226 lung) of the same molecule?
Answer: 40.2 µM

Question: And the GI50 (SF-539 CNS)?
Answer: 5.09 µM

Question: What about the TGI (SF-539 CNS) of the same molecule?
Answer: 45.6 µM

Question: And the GI50 (T-47D breast)?
Answer: 9.26 µM

Question: And the TGI (T-47D breast)?
Answer: > 100 µM

Question: And the GI50 (UACC-62 melanoma)?
Answer: 21.3 µM

Question: And the TGI (UACC-62 melanoma)?
Answer: > 100 µM

Question: What about the GI50 (SK-MEL-2 melanoma) of the same molecule?
Answer: 15.9 µM

Question: What about the TGI (SK-MEL-2 melanoma) of the same molecule?
Answer: 51.7 µM

Question: And the GI50 (UACC-257 melanoma)?
Answer: 19.8 µM

Question: And the TGI (UACC-257 melanoma)?
Answer: 90.4 µM

Question: And the GI50 (MCF7 breast)?
Answer: 3.93 µM

Question: And the TGI (MCF7 breast)?
Answer: > 100 µM

Question: And the GI50 (HCC-2998 colon)?
Answer: 15.4 µM

Question: And the TGI (HCC-2998 colon)?
Answer: 29.8 µM

Question: What about the GI50 (786-0 renal) of the same molecule?
Answer: 12.6 µM

Question: And the TGI (786-0 renal)?
Answer: 41.9 µM

Question: And the GI50 (A549 NSCLC)?
Answer: 39.5 µM

Question: And the TGI (A549 NSCLC)?
Answer: > 100 µM

Question: And the GI50 (NCI-H460 lung)?
Answer: 3.98 µM

Question: And the TGI (NCI-H460 lung)?
Answer: 21.1 µM

Question: What about the GI50 (HCT-116 colon) of the same molecule?
Answer: 22.7 µM

Question: What about the TGI (HCT-116 colon) of the same molecule?
Answer: > 100 µM

Question: And the GI50 (SN12C renal)?
Answer: 18.5 µM

Question: And the TGI (SN12C renal)?
Answer: > 100 µM

Question: What about the GI50 (MDA-MB-435) of the same molecule?
Answer: 12.9 µM

Question: What about the TGI (MDA-MB-435) of the same molecule?
Answer: 94.1 µM

Question: What about the GI50 (BT-549 breast) of the same molecule?
Answer: 7.24 µM

Question: And the TGI (BT-549 breast)?
Answer: 35.4 µM

Question: What about the GI50 (SK-MEL-5 melanoma) of the same molecule?
Answer: 11.4 µM

Question: And the TGI (SK-MEL-5 melanoma)?
Answer: 24.5 µM

Question: What about the GI50 (MDA-MB-231 breast) of the same molecule?
Answer: 16.1 µM

Question: And the TGI (MDA-MB-231 breast)?
Answer: 46.9 µM

Question: And the GI50 (OVCAR-3 ovarian)?
Answer: 10.8 µM

Question: And the TGI (OVCAR-3 ovarian)?
Answer: 49.1 µM

Question: What about the GI50 (SK-MEL-28 melanoma) of the same molecule?
Answer: 31.6 µM

Question: And the TGI (SK-MEL-28 melanoma)?
Answer: > 100 µM

Question: What about the GI50 (HCT-15 colon) of the same molecule?
Answer: 22.7 µM

Question: And the TGI (HCT-15 colon)?
Answer: > 100 µM

Question: And the GI50 (NCI/ADR-RES ovarian)?
Answer: 15.9 µM

Question: What about the TGI (NCI/ADR-RES ovarian) of the same molecule?
Answer: 57.9 µM

Question: What about the GI50 (ACHN renal) of the same molecule?
Answer: 25.1 µM

Question: What about the TGI (ACHN renal) of the same molecule?
Answer: > 100 µM

Question: What about the GI50 (SK-OV-3 ovarian) of the same molecule?
Answer: 77.2 µM

Question: And the TGI (SK-OV-3 ovarian)?
Answer: > 100 µM

Question: And the GI50 (IGROV1 ovarian)?
Answer: 15.7 µM

Question: What about the TGI (IGROV1 ovarian) of the same molecule?
Answer: 39.9 µM

Question: And the GI50 (M14 melanoma)?
Answer: 23 µM

Question: What about the TGI (M14 melanoma) of the same molecule?
Answer: > 100 µM

Question: What about the GI50 (SNB-75 CNS) of the same molecule?
Answer: 12.5 µM

Question: And the TGI (SNB-75 CNS)?
Answer: 64.5 µM

Question: What about the GI50 (SW-620 colon) of the same molecule?
Answer: 11 µM

Question: And the TGI (SW-620 colon)?
Answer: 61.7 µM

Question: And the GI50 (NCI-H522 lung)?
Answer: 23 µM

Question: And the TGI (NCI-H522 lung)?
Answer: 68.3 µM

Question: What about the GI50 (COLO 205 colon) of the same molecule?
Answer: 13.4 µM

Question: And the TGI (COLO 205 colon)?
Answer: > 100 µM

Question: And the GI50 (SNB-19 CNS)?
Answer: 11.9 µM

Question: And the TGI (SNB-19 CNS)?
Answer: 98 µM

Question: What about the GI50 (HOP-92 NSCLC) of the same molecule?
Answer: 18.1 µM

Question: What about the TGI (HOP-92 NSCLC) of the same molecule?
Answer: > 100 µM

Question: And the GI50 (EKVX NSCLC)?
Answer: 24.8 µM

Question: What about the TGI (EKVX NSCLC) of the same molecule?
Answer: > 100 µM
